Results from patent publication US11820766B2, “Monoacylglycerol lipase modulators” (Janssen Pharmaceutica NV, priority 2018, dated 2023).
pIC50: −log10 of the molar value.

Target: T1, human MGL from HeLa cells (Homo sapiens, UniProt Q99685)
T1 construct: combining endogenously expressed MGL from HeLa cells with test compounds; endogenous in cells; host or cells: HeLa cells / cell homogenates
T1 sequence (Q99685 1-303): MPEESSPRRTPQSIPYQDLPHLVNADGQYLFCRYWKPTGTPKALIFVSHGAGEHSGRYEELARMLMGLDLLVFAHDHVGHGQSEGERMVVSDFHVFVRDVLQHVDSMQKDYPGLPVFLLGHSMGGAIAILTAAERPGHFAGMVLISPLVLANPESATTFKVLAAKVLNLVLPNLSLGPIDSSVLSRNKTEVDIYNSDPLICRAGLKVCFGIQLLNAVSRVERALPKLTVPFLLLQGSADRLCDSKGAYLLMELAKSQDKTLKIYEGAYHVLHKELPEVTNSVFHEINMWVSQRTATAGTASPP
Assay: In vitro MGL activity assay: [glycerol-1,3-3H]-oleyl glycerol cleavage by MGL from HeLa cells
Type: biochemical
Settings: 300 nM [Glycerol-1,3-3H]-oleyl glycerol, one hour
Excerpt: MGL is the predominant hydrolase in HeLa cells/cell homogenates.

Compared with `C[C@H]1c2nn(C)c(-c3cc(F)c(F)c(F)c3)c2CCN1C(=O)c1cccn2ncc(F)c12` [Example 377, [(7S)-2,7-Dimethyl-3-(3,4,5-trifluorophenyl)-5,7-dihydro-4H-pyrazolo[3,4-c]pyridin-6-yl]-(3-fluoropyrazolo[1,5-a]pyridin-4-yl)methanone], `C[C@H]1c2nn(C)c(-c3cc(F)c(F)c(F)c3)c2CCN1C(=O)c1c[nH]c2cccc(F)c12` [Example 357, [(7S)-2,7-Dimethyl-3-(3,4,5-trifluorophenyl)-5,7-dihydro-4H-pyrazolo[3,4-c]pyridin-6-yl]-(4-fluoro-1H-indol-3-yl)methanone] is 0.28 log units lower in pIC50: 8.33 for the first, 8.05 for the second. The first is the more potent here.

Compared with `CC1CC1c1c(C(=O)N2CCc3c(nn(C)c3-c3cc(F)c(F)c(F)c3)[C@@H]2C)cnn1C` (stereo partly drawn) [Example 341, ((S)-2,7-Dimethyl-3-(3,4,5-trifluorophenyl)-2,4,5,7-tetrahydro-6H-pyrazolo[3,4-c]pyridin-6-yl)(1-methyl-cis-5-(2-methylcyclopropyl)-1H-pyrazol-4-yl)methanone], `C[C@H]1c2nn(C)c(-c3cc(F)c(F)c(F)c3)c2CCN1C(=O)c1cc2n(n1)CCCO2` [Example 553, 6,7-Dihydro-5H-pyrazolo[5,1-b][1,3]oxazin-2-yl-[(7S)-2,7-dimethyl-3-(3,4,5-trifluorophenyl)-5,7-dihydro-4H-pyrazolo[3,4-c]pyridin-6-yl]methanone] is 1.48 log units lower in pIC50: 8.02 for the first, 6.54 for the second. The first is the more potent here.

Compared with `Cc1nc2ccccn2c1C(=O)N1CCc2c(nn(C)c2-c2cc(F)c(F)c(F)c2)[C@@H]1C` [Example 397, [(7S)-2,7-Dimethyl-3-(3,4,5-trifluorophenyl)-5,7-dihydro-4H-pyrazolo[3,4-c]pyridin-6-yl]-(2-methylimidazo[1,2-a]pyridin-3-yl)methanone], `Cc1nn2ccccc2c1C(=O)N1CCc2c(nn(C)c2-c2cc(F)c(F)c(F)c2)[C@@H]1C` [Example 382, [(7S)-2,7-Dimethyl-3-(3,4,5-trifluorophenyl)-5,7-dihydro-4H-pyrazolo[3,4-c]pyridin-6-yl]-(2-methylpyrazolo[1,5-a]pyridin-3-yl)methanone] is 0.38 log units higher in pIC50: 7.99 for the first, 8.37 for the second. The second is the more potent here.

Going from `C[C@H]1c2nn(C)c(-c3cc(F)c(F)c(F)c3)c2CCN1C(=O)c1cc2ccccc2nn1` [Example 478, Cinnolin-3-yl-[(7S)-2,7-dimethyl-3-(3,4,5-trifluorophenyl)-5,7-dihydro-4H-pyrazolo[3,4-c]pyridin-6-yl]methanone] to `C[C@H]1c2nn(C)c(-c3cc(F)c(F)c(F)c3)c2CCN1C(=O)c1cccc2cnccc12` [Example 543, [(7S)-2,7-Dimethyl-3-(3,4,5-trifluorophenyl)-5,7-dihydro-4H-pyrazolo[3,4-c]pyridin-6-yl]-(5-isoquinolyl)methanone], the pIC50 rises from 6.95 to 8.31 (1.36 log units). The second is the more potent here.

First: Cc1c[nH]c2ncnc(C(=O)N3CCc4c(nn(C)c4-c4cc(F)c(F)c(F)c4)[C@@H]3C)c12 [Example 464, [(7S)-2,7-Dimethyl-3-(3,4,5-trifluorophenyl)-5,7-dihydro-4H-pyrazolo[3,4-c]pyridin-6-yl]-(5-methyl-7H-pyrrolo[2,3-d]pyrimidin-4-yl)methanone]
Second: Cc1nc(C(=O)N2CCc3c(nn(C)c3-c3cc(F)c(F)c(F)c3)[C@@H]2C)c2ncccn12 [Example 460, [(7S)-2,7-Dimethyl-3-(3,4,5-trifluorophenyl)-5,7-dihydro-4H-pyrazolo[3,4-c]pyridin-6-yl]-(6-methylimidazo[1,5-a]pyrimidin-8-yl)methanone]
The pIC50 of the first is 1.22 log units higher: 7.50 for the first, 6.28 for the second.

First: COc1ncc(-c2c3c(nn2C)[C@H](C)N(C(=O)c2ccc4ncccc4c2)CC3)cc1C [Example 529, [(7S)-3-(6-Methoxy-5-methyl-3-pyridyl)-2,7-dimethyl-5,7-dihydro-4H-pyrazolo[3,4-c]pyridin-6-yl]-(6-quinolyl)methanone]
Second: Cc1nc2ccc(C(=O)N3CCc4c(nn(C)c4-c4cc(F)c(F)c(F)c4)[C@@H]3C)cc2nc1C [Example 476, (2,3-Dimethylquinoxalin-6-yl)-[(7S)-2,7-dimethyl-3-(3,4,5-trifluorophenyl)-5,7-dihydro-4H-pyrazolo[3,4-c]pyridin-6-yl]methanone]
The pIC50 of the first is 1.09 log units lower: 6.50 for the first, 7.59 for the second.

Compared with `C[C@H]1c2nn(C)c(-c3cc(F)c(F)c(F)c3)c2CCN1C(=O)c1n[nH]c2ccncc12` [Example 435, [(7S)-2,7-Dimethyl-3-(3,4,5-trifluorophenyl)-5,7-dihydro-4H-pyrazolo[3,4-c]pyridin-6-yl]-(1H-pyrazolo[4,3-c]pyridin-3-yl)methanone], `C[C@H]1c2nn(C)c(-c3cc(F)c(F)c(F)c3)c2CCN1C(=O)c1c[nH]c2ccc(F)cc12` [Example 355, [(7S)-2,7-Dimethyl-3-(3,4,5-trifluorophenyl)-5,7-dihydro-4H-pyrazolo[3,4-c]pyridin-6-yl]-(5-fluoro-1H-indol-3-yl)methanone] is 0.24 log units higher in pIC50: 7.40 for the first, 7.64 for the second. The second is the more potent here.

First: C[C@H]1c2nn(C)c(-c3cc(F)c(F)c(F)c3)c2CCN1C(=O)c1c(C(F)F)nc2n1CCCC2 [Example 561, [2-(Difluoromethyl)-5,6,7,8-tetrahydroimidazo[1,2-a]pyridin-3-yl]-[(7S)-2,7-dimethyl-3-(3,4,5-trifluorophenyl)-5,7-dihydro-4H-pyrazolo[3,4-c]pyridin-6-yl]methanone]
Second: Cc1cc(F)cc(-c2c3c(nn2C)[C@H](C)N(C(=O)c2ncnc4c2ccn4C)CC3)c1 [Example 465, [(7S)-3-(3-Fluoro-5-methyl-phenyl)-2,7-dimethyl-5,7-dihydro-4H-pyrazolo[3,4-c]pyridin-6-yl]-(7-methylpyrrolo[2,3-d]pyrimidin-4-yl) methanone]
The pIC50 of the first is 1.58 log units lower: 6.49 for the first, 8.07 for the second. The second is the more potent here.

Same assay, conditions: 300 nM [Glycerol-1,3-3H]-oleyl glycerol, one hour incubation

First: Cn1nc2c(c1-c1ccccc1)CCN(C(=O)c1cccc3c1OCO3)C2 [Example 28, Benzo[d][1,3]dioxol-4-yl(2-methyl-3-phenyl-2,4,5,7-tetrahydro-6H-pyrazolo[3,4-c]pyridin-6-yl)methanone]
Second: Cn1nc2c(c1-c1ccccc1)CCN(C(=O)c1cccc3c1NC(=O)CO3)C2 [Example 26, 5-(2-Methyl-3-phenyl-4,5,6,7-tetrahydro-2H-pyrazolo[3,4-c]pyridine-6-carbonyl)-2H-benzo[b][1,4]oxazin-3(4H)-one]
The pIC50 of the first is 0.21 log units lower: 5.40 for the first, 5.61 for the second.

Going from `COc1cc(C(=O)N2CCc3c(nn(C)c3-c3ccccc3)C2)cc(C(F)(F)F)c1` [Example 6, (3-Methoxy-5-(trifluoromethyl)phenyl)(2-methyl-3-phenyl-2,4,5,7-tetrahydro-6H-pyrazolo[3,4-c]pyridin-6-yl)methanone] to `Cn1nc2c(c1-c1ccccc1)CCN(C(=O)c1ccc3ocnc3c1)C2` [Example 58, Benzo[d]oxazol-5-yl(2-methyl-3-phenyl-2,4,5,7-tetrahydro-6H-pyrazolo[3,4-c]pyridin-6-yl)methanone], the pIC50 falls from 6.44 to 5.38 (1.06 log units). The first is the more potent here.

Compared with `Cn1nc2c(c1-c1cccc(Cl)c1)CCN(C(=O)c1ccc3ncccc3c1)C2` [Example 99, (3-(3-Chlorophenyl)-2-methyl-2,4,5,7-tetrahydro-6H-pyrazolo[3,4-c]pyridin-6-yl)(quinolin-6-yl)methanone], `CCn1nc2c(c1-c1ccccc1)CCN(C(=O)c1ccc3ncccc3c1)C2` [Example 91, (2-Ethyl-3-phenyl-2,4,5,7-tetrahydro-6H-pyrazolo[3,4-c]pyridin-6-yl)(quinolin-6-yl)methanone] is 0.46 log units lower in pIC50: 6.57 for the first, 6.11 for the second. The first is the more potent here.

First: C[C@H]1c2nn(C)c(-c3cc(F)c(F)c(F)c3)c2CCN1C(=O)c1cnn(C)c1C(F)F [Example 330, [5-(Difluoromethyl)-1-methyl-pyrazol-4-yl]-[(7S)-2,7-dimethyl-3-(3,4,5-trifluorophenyl)-5,7-dihydro-4H-pyrazolo[3,4-c]pyridin-6-yl]methanone]
Second: COc1cccc(C(=O)N2CCc3c(nn(C)c3-c3cc(F)c(F)c(F)c3)[C@@H]2C)c1Cl [Example 191, (S)-(2-Chloro-3-methoxyphenyl)(2,7-dimethyl-3-(3,4,5-trifluorophenyl)-2,4,5,7-tetrahydro-6H-pyrazolo[3,4-c]pyridin-6-yl)methanone]
The pIC50 of the first is 1.60 log units lower: 6.99 for the first, 8.59 for the second.

Going from `Cc1nc2sccn2c1C(=O)N1CCc2c(nn(C)c2-c2ccccc2)C1` [Example 32, (2-Methyl-3-phenyl-2,4,5,7-tetrahydro-6H-pyrazolo[3,4-c]pyridin-6-yl)(6-methylimidazo[2,1-b]thiazol-5-yl)methanone] to `Cn1nc2c(c1-c1ccccc1)CCN(C(=O)c1cccc3ncsc13)C2` [Example 59, Benzo[d]thiazol-7-yl(2-methyl-3-phenyl-2,4,5,7-tetrahydro-6H-pyrazolo[3,4-c]pyridin-6-yl)methanone], the pIC50 rises from 5.96 to 6.40 (0.44 log units).

Compared with `CC1c2nn(C)c(-c3cccc(Cl)c3)c2CCN1C(=O)c1cnc2ccoc2c1` (racemic) [Example 126, (3-(3-Chlorophenyl)-2,7-dimethyl-2,4,5,7-tetrahydro-6H-pyrazolo[3,4-c]pyridin-6-yl)(furo[3,2-b]pyridin-6-yl)methanone], `C[C@H]1c2nn(C)c(-c3cccc(Cl)c3)c2CCN1C(=O)c1cc(Br)c2nccnc2c1` [Example 135, (S)-(8-Bromoquinoxalin-6-yl)(3-(3-chlorophenyl)-2,7-dimethyl-2,4,5,7-tetrahydro-6H-pyrazolo[3,4-c]pyridin-6-yl)methanone] is 1.08 log units higher in pIC50: 6.89 for the first, 7.97 for the second.

Compared with `Cn1nc2c(c1-c1ccccc1)CCN(C(=O)c1c[nH]c3ccccc13)C2` [Example 44, (1H-Indol-3-yl)(2-methyl-3-phenyl-2,4,5,7-tetrahydro-6H-pyrazolo[3,4-c]pyridin-6-yl)methanone], `Cn1nc2c(c1-c1ccccc1)CCN(C(=O)c1cccc3ccoc13)C2` [Example 33, Benzofuran-7-yl(2-methyl-3-phenyl-2,4,5,7-tetrahydro-6H-pyrazolo[3,4-c]pyridin-6-yl)methanone] is 0.55 log units higher in pIC50: 6.50 for the first, 7.05 for the second. The second is the more potent here.
